From ChEMBL document CHEMBL1158925, “New proazulene guaianolides from Thapsia villosa” (J Nat Prod, 1990) come the findings set out here.

Each structure is given as a SMILES string. Activity calls are given as the source filed them. The calls are words filed in the database; no cut-off is given here.

The subject of one data set is Mast cell. Description: Induction of histamine release in rat peritoneal mast cells at 10 uM. The data set is classed as functional, cell-based.
Data set [1] is described as follows: Skin irritant activity in mouse ear at 10 ug after 24 hrs. The data set is classed as ADME, tissue-based. Particulars: in vivo, topical_or_ocular.

With `CC(=O)O[C@@H]1C=C(C)[C@H]2[C@@H]3OC(=O)[C@@](C)(OC(C)=O)[C@@H]3[C@@H](OC(=O)C=C(C)C)C[C@](C)(OC(C)=O)[C@H]21`, the result with Mast cell was inactive. Also, the Activity entry in data set [1] is “Non-toxic”.
The like results for `CCC(C)C(=O)O[C@H]1C[C@](C)(OC(C)=O)[C@@H]2[C@@H](C(C)=C[C@H]2OC(C)=O)[C@@H]2OC(=O)[C@@](C)(OC(C)=O)[C@@H]21` (stereo not given in full) were, in that order, “inactive” and “Non-toxic”.
The like results for `C/C=C(/C)C(=O)O[C@H]1C(C)=C2[C@H]([C@@H]1OC(=O)CCCCCCC)[C@@](C)(OC(C)=O)C[C@H](OC(=O)CCC)[C@@]1(O)[C@H]2OC(=O)[C@@]1(C)O` [THAPSIGARGIN] were, in that order, “inactive” and “Non-toxic”.
The like results for `CCC(C)C(=O)O[C@H]1C[C@](C)(OC(C)=O)[C@@H]2[C@@H](C(C)=C[C@H]2O)[C@@H]2OC(=O)[C@@](C)(OC(C)=O)[C@@H]21` (stereo not given in full) were, in that order, “inactive” and “Non-toxic”.
In the case of `CC(=O)O[C@@]1(C)C[C@H](OC(=O)C=C(C)C)[C@@H]2[C@@H](OC(=O)[C@@]2(C)OC(C)=O)[C@@H]2C(C)=C[C@@H](O)[C@@H]21`, the result in the data set on Mast cell was inactive. Also, the Activity entry in data set [1] is given as “Non-toxic”.
